# Source: patent publication EP0901466B1, “BIPHENYLSULFONAMIDE MATRIX METALLOPROTEINASE INHIBITORS” (WARNER-LAMBERT COMPANY, priority 1996, dated 1997)
# Target: T1, full-length gelatinase B (Homo sapiens, UniProt P14780)
# T1 construct: full-length gelatinase B (FLGB) hydrolysis of thiopeptolide
# Assay: full-length gelatinase B hydrolysis of thiopeptolide (FLGB)
# Format: biochemical
# Settings: thiopeptolide substrate
# Source text: (§1) The compounds were additionally evaluated for their ability to inhibit full-length collagenase hydrolysis of thiopeptolide substrate (FLC) and full-length gelatinase B (FLGB) hydrolysis of thiopeptolide.
# T1 sequence (P14780 94-707, species assumed): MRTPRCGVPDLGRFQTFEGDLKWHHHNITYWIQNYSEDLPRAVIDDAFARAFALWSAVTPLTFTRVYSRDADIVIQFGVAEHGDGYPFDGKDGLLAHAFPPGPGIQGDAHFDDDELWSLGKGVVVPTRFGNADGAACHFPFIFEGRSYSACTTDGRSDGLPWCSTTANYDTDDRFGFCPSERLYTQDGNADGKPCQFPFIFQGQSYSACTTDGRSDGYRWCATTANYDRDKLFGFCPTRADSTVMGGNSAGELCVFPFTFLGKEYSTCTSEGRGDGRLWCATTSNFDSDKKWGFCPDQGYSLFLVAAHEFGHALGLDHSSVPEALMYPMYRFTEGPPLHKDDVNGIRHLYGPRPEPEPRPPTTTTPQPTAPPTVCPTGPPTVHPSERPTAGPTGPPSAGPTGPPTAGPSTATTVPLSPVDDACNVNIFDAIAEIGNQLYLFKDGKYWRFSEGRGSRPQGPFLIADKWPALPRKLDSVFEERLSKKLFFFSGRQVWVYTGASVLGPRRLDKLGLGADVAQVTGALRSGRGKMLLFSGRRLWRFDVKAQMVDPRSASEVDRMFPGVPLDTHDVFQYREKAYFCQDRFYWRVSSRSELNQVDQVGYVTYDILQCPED
row,IC50,Structure (SMILES)
1,8340 nM,"CC(C)[C@H](NS(=O)(=O)c1ccc(-c2ccc(Br)cc2)cc1)C(=O)O [Example 1, (S)-2-(4'-Bromo-biphenyl-4-sulfonylamino)-3-methyl-butyric acid]"
2,23000 nM,"CC(C)[C@H](NS(=O)(=O)c1ccc(-c2ccc(Cl)cc2)cc1)C(=O)O [Example 2, (S)-2-(4'-Chloro-biphenyl-4-sulfonylamino)-3-methyl-butyric acid]"

# Target: T2, full-length collagenase (Homo sapiens, UniProt P03956)
# T2 sequence (P03956 100-469): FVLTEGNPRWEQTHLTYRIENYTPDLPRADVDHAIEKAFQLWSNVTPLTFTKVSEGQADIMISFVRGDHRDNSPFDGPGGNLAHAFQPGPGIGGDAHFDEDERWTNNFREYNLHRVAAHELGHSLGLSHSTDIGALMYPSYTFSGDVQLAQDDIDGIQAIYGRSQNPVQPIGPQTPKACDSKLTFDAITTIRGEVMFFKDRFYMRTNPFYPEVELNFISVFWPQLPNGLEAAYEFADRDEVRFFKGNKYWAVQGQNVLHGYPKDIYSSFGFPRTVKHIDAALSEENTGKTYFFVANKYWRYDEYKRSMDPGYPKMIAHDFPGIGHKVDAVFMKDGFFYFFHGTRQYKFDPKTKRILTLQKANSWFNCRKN
# Assay: full-length collagenase hydrolysis of thiopeptolide substrate (FLC)
# Format: biochemical
# Settings: not given
# Source text: as §1
row,IC50,Structure (SMILES)
1,7500 nM,"CC(C)[C@H](NS(=O)(=O)c1ccc(-c2ccc(Cl)cc2)cc1)C(=O)O [Example 2, (S)-2-(4'-Chloro-biphenyl-4-sulfonylamino)-3-methyl-butyric acid]"

# Target: stromelysin catalytic domain (Homo sapiens, UniProt P08254)
# Sequence (P08254 100-272 limits assumed): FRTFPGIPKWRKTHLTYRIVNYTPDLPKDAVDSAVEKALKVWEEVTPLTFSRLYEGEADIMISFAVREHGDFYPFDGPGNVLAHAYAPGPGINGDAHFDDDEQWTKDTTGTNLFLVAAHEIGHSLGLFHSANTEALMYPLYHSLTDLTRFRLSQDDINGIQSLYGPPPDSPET
# Assay: stromelysin catalytic domain hydrolysis of thiopeptolide (SCD (T))
# Format: biochemical
# Settings: not given
row,IC50,Structure (SMILES)
1,100 nM,"CC(C)[C@H](NS(=O)(=O)c1ccc(-c2ccc(Cl)cc2)cc1)C(=O)O [Example 2, (S)-2-(4'-Chloro-biphenyl-4-sulfonylamino)-3-methyl-butyric acid]"
2,9 nM,"CC(C)[C@H](NS(=O)(=O)c1ccc(-c2ccc(C#N)cc2)cc1)C(=O)O [Example 5, (S)-2-(4'-Cyano-biphenyl-4-sulfonylamino)-3-methyl-butyric acid]"
3,8 nM,"COc1ccc(-c2ccc(S(=O)(=O)N[C@H](C(=O)O)C(C)C)cc2)cc1 [Example 15, (S)-2-(4'-Methoxy-biphenyl-4-sulfonylamino)-3-methyl-butyric acid]"

# Same assay, conditions: thiopeptolide substrate; read-out: SCD (T) (IC50)
row,IC50,Structure (SMILES)
1,347 nM,"CC(C)[C@H](NS(=O)(=O)c1ccc(-c2cccc(Br)c2)cc1)C(=O)O [Example 7, (S)-2-(3'-Bromo-biphenyl-4-sulfonylamino)-3-methyl-butyric acid]"
2,30 nM,"CC(C)[C@H](NS(=O)(=O)c1ccc(-c2ccc(Br)cc2F)cc1)C(=O)O [Example 8, (S)-2-(4'-Bromo-2'-fluoro-biphenyl-4-sulfonylamino)-3-methyl-butyric acid]"
3,60 nM,"O=C(O)CNS(=O)(=O)c1ccc(-c2ccc(Br)cc2)cc1 [Example 12, (4'-Bromo-biphenyl-4-sulfonylamino)-acetic acid]"
4,28 nM,"C[C@H](NS(=O)(=O)c1ccc(-c2ccc(Br)cc2)cc1)C(=O)O [Example 13, (S)-2-(4'-Bromo-biphenyl-4-sulfonylamino)-propionic acid]"
5,13 nM,"CC(C)C[C@H](NS(=O)(=O)c1ccc(-c2ccc(Br)cc2)cc1)C(=O)O [Example 14, (S)-2-(4'-Bromo-biphenyl-4-sulfonylamino)-4-methyl-pentanoic acid]"
6,14 nM,"CC(C)[C@H](NS(=O)(=O)c1ccc(-c2ccc(F)cc2)cc1)C(=O)O [Example 16, (S)-2-(4'-Fluoro-biphenyl-4-sulfonylamino)-3-methyl-butyric acid]"
7,27 nM,"CC(C)[C@H](NS(=O)(=O)c1ccc(-c2cccc(F)c2)cc1)C(=O)O [Example 17, (S)-2-(3'-Fluoro-biphenyl-4-sulfonylamino)-3-methyl-butyric acid]"
8,12 nM,"Cc1ccc(-c2ccc(S(=O)(=O)N[C@H](C(=O)O)C(C)C)cc2)cc1 [Example 18, (S)-3-Methyl-2-(4'-methyl-biphenyl-4-sulfonylamino)-butyric acid]"

# Continued, molecule first:
row,Structure (SMILES),IC50
1,"CC(C)[C@H](NS(=O)(=O)c1ccc(-c2ccc([N+](=O)[O-])cc2)cc1)C(=O)O [Example 3, (S)-3-Methyl-2-(4'-nitro-biphenyl-4-sulfonylamino)-butyric acid]",31 nM
2,"CC(C)[C@H](NS(=O)(=O)c1ccc(-c2ccc(N)cc2)cc1)C(=O)O [Example 4, (S)-2-(4'-Amino-biphenyl-4-sulfonylamino)-3-methyl-butyric acid]",67 nM
3,"O=C(O)[C@H](Cc1ccccc1)NS(=O)(=O)c1ccc(-c2ccc(Br)cc2)cc1 [Example 10, (S)-2-(4'-Bromo-biphenyl-4-sulfonylamino)-3-phenyl-propionic acid]",26 nM
